In paper PMC4842970, “Bioactivity Focus of α-Cyano-4-hydroxycinnamic acid (CHCA) Leads to Effective Multifunctional Aldose Reductase Inhibitors” (Scientific Reports, 2016):

Tests used:
[1] = tested on: ALR2; assay: AR (ALR2) activity in glucose-treated embryos (chicken AR ELISA kit); assay type: in vivo; conditions: glucose-treated chick embryos, EDD 5, dose 1 μM
Procedure: (§1) As expected, treatment of 5f decreased ALR2 activity in a dose-dependent manner. […] However, EDA, which is a clinical radical scavenger, was shown no effect on the inhibition of ALR2.
(§2) Embryos on EDD 5 were homogenized with chicken saline and centrifuged (4 °C, 10000 rpm, 10 min). The supernatant was used for measuring AR activity in the sample. A chicken AR ELISA kit (Jianglai Biotechnology, China) were used for detection. The concentration of AR in the samples was then determined by comparing the OD of the samples to the standard curve. The sorbitol contents of the chick embryo were determined by a Sorbitol Colorimetric Assay Kit (BioVision, USA). In the assay, sorbitol is oxidized to fructose with the proportional development of intense color with an absorbance maximum at 560 nm.

[2] = target: T1, ALR1 (Gallus gallus, UniProt Q5ZK84); assay: ALR1 activity in glucose-treated embryos (chicken ALR1 ELISA kit); assay type: in vivo; conditions: glucose-treated chick embryos, EDD 5, compared with the model group
T1 construct: Embryos on EDD 5 were homogenized with chicken saline and centrifuged; from tissue; host or cells: EDD 5 chick (leghorn) embryo homogenate supernatant
T1 sequence (Q5ZK84 1-327): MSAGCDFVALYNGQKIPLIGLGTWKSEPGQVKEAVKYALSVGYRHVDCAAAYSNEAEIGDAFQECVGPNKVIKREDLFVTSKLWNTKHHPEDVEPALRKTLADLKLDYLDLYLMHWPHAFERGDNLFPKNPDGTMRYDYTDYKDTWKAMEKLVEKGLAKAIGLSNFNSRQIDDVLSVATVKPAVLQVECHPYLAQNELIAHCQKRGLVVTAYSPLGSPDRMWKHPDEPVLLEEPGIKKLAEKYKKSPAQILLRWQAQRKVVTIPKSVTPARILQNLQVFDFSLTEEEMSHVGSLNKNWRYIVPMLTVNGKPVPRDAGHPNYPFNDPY
Procedure: Embryos on EDD 5 were homogenized with chicken saline and centrifuged (4 °C, 10000 rpm, 10 min). The supernatant was used for measuring ALR1 activity in the sample. A chicken ALR1 ELISA kit (Jianglai Biotechnology, China) were used for detection. The concentration of ALR1 in the samples was then determined by comparing the OD of the samples to the standard curve.

[3] = tested on: HEK293 cells; assay: Cytotoxicity, MTT growth inhibition; assay type: cell-based, human; conditions: 500 μM
Procedure: In another aspect, the toxicity was evaluated by the growth inhibition of 5f against human embryonic kidney 293 (HEK293) cells. It was shown that 5f was nontoxic to HEK293 cells even at high concentration of 500 μM (Supplementary B of Fig. S2).
HEK293 cells were purchased from Centre of Cells Resource, Shanghai Institute of Life Science, Chinese Academy of Sciences, P. R. China. HEK293 cells in the exponential phase were plated on a 96-well cell culture plate with 5 × 10^3 cells in each well supplemented with 100 U/ml of penicillin and 100 μg/ml of streptomycin, which were cultured in a humidified atmosphere of 95% and 5% CO2 at 37 °C for 24 h. The cells were adherent. […] 6 wells were set for each group. The wells without addition of the drug were set as controls. The cells in each of the wells were cultured for another 24 h. Then 15 μl of MTT (5 mg/mL) was added to each well. The plates were then incubated at 37 °C for 4 hours, then the supernatants were discarded. 150 μL of DMSO solutions were added to each of the wells and the solutions were mixed thoroughly. Then the plates were incubated at 37 °C for another 10 minutes. Each sample was mixed again and the resulting formazan was measured by its absorbance at 570 nm using a BIO-RAD680 plate reader (Thermo, USA). The experiments were repeated at least 3 times and compared with the control experiment. […]

[4] = tested on: sorbitol content; assay: Sorbitol content in glucose-treated embryos; assay type: in vivo; conditions: glucose-treated chick embryos, EDD 5, dose 1 μM
Procedure: as §1, §2

## CC(=O)N[C@H](COCc1ccccc1)C(=O)NCCCNC(=O)/C(C#N)=C/c1ccc(O)cc1 [Compound 5f, (R,E) - N - (3-(2-acetamido-3-(benzyloxy)propanamido)propyl)-2-cyano-3-(4-hydroxyphenyl)acrylamide]
[1]
  ALR2 activity in embryo: close to that of the control
[2]
  ALR1 level in embryo: no obvious change
[3]
  inhibition rate (growth inhibition): 19.2%
[4]
  sorbitol content in embryo: decreased significantly
